Experimental findings from ChEMBL document CHEMBL2163195, “Development of potent carbonic anhydrase inhibitors incorporating both sulfonamide and sulfamide groups” (J Med Chem, 2012) are described below.

Each structure is given as a SMILES string. pKi: −log10 of the molar value.

The assay concerns the target Carbonic anhydrase 9 (Homo sapiens, UniProt Q16790).
For orientation: pKi means −log10 of the Ki, conventionally taken in molar units. In turn, `NS(=O)(=O)Nc1ccc(S(N)(=O)=O)cc1` gave a pKi of 7.19.
The compound `NS(=O)(=O)NCc1ccc(S(N)(=O)=O)cc1` showed a pKi of 7.19.
In the case of `NS(=O)(=O)NCCc1ccc(S(N)(=O)=O)cc1` it was 6.21; in that of `NS(=O)(=O)Nc1ccc(S(=O)(=O)Nc2ccc(S(N)(=O)=O)cc2)cc1`, 7.57; in that of `NS(=O)(=O)Nc1ccc(S(=O)(=O)NCc2ccc(S(N)(=O)=O)cc2)cc1`, 7.46.
Then `NS(=O)(=O)Nc1ccc(S(=O)(=O)NCCc2ccc(S(N)(=O)=O)cc2)cc1`, with 7.19; and `NS(=O)(=O)Nc1ccc(S(=O)(=O)Nc2ccc(C(=O)O)cc2)cc1`, with 7.24.
Compound `NS(=O)(=O)Nc1ccc(S(=O)(=O)Nc2ccc(C(=O)NCCc3ccc(S(N)(=O)=O)cc3)cc2)cc1` gave a negative logarithm of the Ki (pKi) of 9.40.
In the case of `CC(=O)Nc1ccc(S(=O)(=O)Nc2ccc(C(=O)NCCc3ccc(S(N)(=O)=O)cc3)cc2)cc1` it was 8.35.
